From US20100068301A1, “COMPOSITIONS AND TREATMENTS COMPRISING 5-LIPOXYGENASE-ACTIVATING PROTEIN INHIBITORS AND NITRIC OXIDE MODULATORS” (priority 2006, published 2010)
Like-named read-outs stand apart in the source and are kept apart here.

Experiments:
[1] = test system: naproxen induced gastric lesions; assay: Rat gastric lesion procedure (naproxen-induced); format: in vivo; settings: co-dosed with naproxen 40 mg/kg
Protocol: Gastric lesions in rat can be induced by ingestion of a non-steroidal anti-inflammatory drug (NSAID) such as naproxen. This effect is apparent with 4 to 6 hours of administration. The therapeutic effect of two different agents on preventing NSAID-induced gastric lesions first as a mono-therapy and then as a combination therapy using a fractional dose approach to test for additivity. The two agents tested include 1) 3-[3-tert-Butylsulfanyl-1-[4-(6-ethoxy-pyridin-3-yl)-benzyl]-5-(pyridin-2-ylmethoxy)-1H-indol-2-yl]-2,2-dimethyl-propionic acid (prepared according to the procedures described in US patent publication no. 2007/0105866; see Compound 2-94), a 5-lipoxygenase activating protein (FLAP) inhibitor and 2) isosorbide mononitrate (a nitric oxide donor).
Procedures: Gastric lesions were induced in 24-hour fasted male Sprague-Dawley rats (weighing 200-300 grams) by administering a single oral dose of naproxen (40 mg/kg), in the mono-therapy phase of the study Compound 2-94 was prepared at 1, 10 and 30 mg/kg and was co-dosed with naproxen. Separately, isosorbide mononitrate was prepared at 3, 10, 30 and 100 mg/kg and was co-dosed with naproxen. The ED50 (defined as the dose to produce the half maximal effect) from this phase of the experiment was used to calculate doses for the combination therapy phase of the study in which Compound 2-94 and isosorbide mononitrate were formulated together and co-dosed with Naproxen. Fractional doses tested include; 2, 1, ½ and ¼ of the ED50 values. In all conditions, four hours alter dosing, rats were anesthetized with inhaled isoflurane and the stomachs removed and cut along the lesser curvature and rinsed thoroughly of any contents using tap water. Each stomach was then pinned down flat with the mucosal layer side up and a digit image captured at an exposure of 10×. These images were then used to determine the total lesion area in mm^2. A Lesion Index (LI) was calculated for each individual stomach by the formula:
LI=[lesion area (mm^2)/total stomach area (mm^2)]×100
Individual drug effects were then determined by calculating the percent inhibition of LI for each dose group relative to the naproxen-alone group using the formula:
% inhibition=100−[LItreatment/LIcontrol(naproxen)×100]
(ED50 of Compound 2-94 with isosorbide mononitrate)/(ED50 ft for Compound 2-94 given alone)+(ED50 of isosorbide mononitrate with Compound 2-94)/(ED50 for isosorbide given alone).
The fractional value indicates what proportion of the single ED50 value was accounted for by the corresponding ED50 value of the combination.

[2] = intravenous, cited from earlier work
[3] = Compound 2-94 and isosorbide mononitrate formulated together, read-out: fraction dose ED50 (dose of the component in the combination)
[4] = oral, 4 h after dosing, estimated, read-out: ED50, inhibition of naproxen induced gastric lesions (mono-therapy)

CCOc1ccc(-c2ccc(Cn3c(CC(C)(C)C(=O)O)c(SC(C)(C)C)c4cc(OCc5ccccn5)ccc43)cc2)cn1 [Compound 2-94, 3-[3-tert-Butylsulfanyl-1-[4-(6-ethoxy-pyridin-3-yl)-benzyl]-5-(pyridin-2-ylmethoxy)-1H-indol-2-yl]-2,2-dimethyl-propionic acid]
ED50 [1, 3]: 2.5 mg/kg | ED50 [1, 4]: 5 mg/kg

O=[N+]([O-])O[C@@H]1CO[C@H]2[C@@H]1OC[C@@H]2O [isosorbide mononitrate]
ED50 [1, 3]: 7.5 mg/kg | ED50 [1, 4]: 15 mg/kg

nitroprusside
decrease of pulmonary vascular resistance (PVR), mean ([2]; 15 patients): 32% | mean PAP after treatment ([2]; 15 patients, decreased from 29.6): 24.2 mm Hg | mean systemic arterial pressure after treatment ([2]; 15 patients, reduced from 89.6, unacceptably low level): 70 mm Hg | effect on pulmonary gas exchange ([2]; by increasing QVA/QT): markedly impairs pulmonary gas exchange
